Source: ChEMBL document CHEMBL1201862, “PubChem BioAssay data set” (2004)
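Following 48 hours of exposure in 96-well plates, responses at five concentrations were used to interpolate endpoints linearly. At the GI50, growth is halved.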 Calls of active or inactive are those of the source. Cut-off read from the data, not from the text of the source: active = GI50 up to about 1.1 µM and inactive = higher.

What was measured:
Test in all cases: NCI anticancer screen, dose series, 48 h
SK-MEL-2 = test system: SK-MEL-2
A498 = test system: A498
MDA-MB-435 = test system: MDA-MB-435
LOX IMVI = test system: LOX IMVI
COLO 205 = test system: COLO 205
MDA-MB-231 = test system: MDA-MB-231
NCI-H226 = test system: NCI-H226
Hs-578T = test system: Hs-578T
HT-29 = test system: HT-29
SK-MEL-5 = test system: SK-MEL-5
HCT-15 = test system: HCT-15
RXF 393 = test system: RXF 393
OVCAR-8 = test system: OVCAR-8
OVCAR-5 = test system: OVCAR-5
786-0 = test system: 786-0
NCI/ADR-RES = test system: NCI/ADR-RES
IGROV-1 = test system: IGROV-1
T47D = test system: T47D
SN12C = test system: SN12C
NCI-H522 = test system: NCI-H522

Row | SMILES | GI50 (SK-MEL-2) | GI50 (A498) | GI50 (MDA-MB-435) | GI50 (LOX IMVI) | GI50 (COLO 205) | GI50 (MDA-MB-231) | GI50 (NCI-H226) | GI50 (Hs-578T) | GI50 (HT-29) | GI50 (SK-MEL-5) | GI50 (HCT-15) | GI50 (RXF 393) | GI50 (OVCAR-8) | GI50 (OVCAR-5) | GI50 (786-0) | GI50 (NCI/ADR-RES) | GI50 (IGROV-1) | GI50 (T47D) | GI50 (SN12C) | GI50 (NCI-H522)
1 | Cc1ccc(S(=O)(=O)NC(=O)Nc2nnc(S(N)(=O)=O)s2)cc1 | > 100 µM (inactive) | > 100 µM (inactive) | > 100 µM (inactive) | > 100 µM (inactive) | > 100 µM (inactive) | > 100 µM (inactive) | > 100 µM (inactive) | > 100 µM (inactive) | > 100 µM (inactive) | > 100 µM (inactive) | > 100 µM | > 100 µM (inactive) | > 100 µM (inactive) | > 100 µM (inactive) | > 100 µM (inactive) | > 100 µM (inactive) | – | – | – | –
2 | CN(C)c1ccc(NN=C2SC(=N\c3ccccc3)/C(=N/c3ccccc3)S2)cc1 | 13.6 µM (inactive) | 50 µM (inactive) | 20.4 µM (inactive) | 22.1 µM (inactive) | 37.4 µM (inactive) | – | > 100 µM (inactive) | 57.4 µM (inactive) | 15.5 µM (inactive) | 19.8 µM (inactive) | 9.31 µM | 10 µM (inactive) | 64.9 µM (inactive) | 70.5 µM (inactive) | > 100 µM (inactive) | 67.8 µM (inactive) | > 100 µM (inactive) | 12.3 µM (inactive) | 43.4 µM (inactive) | 6.03 µM (inactive)
3 | N#CC12CNCC1CN=N2 (stereo not given) | > 100 µM (inactive) | > 100 µM (inactive) | > 100 µM (inactive) | > 100 µM (inactive) | > 100 µM (inactive) | > 100 µM (inactive) | > 100 µM (inactive) | – | > 100 µM (inactive) | > 100 µM (inactive) | > 100 µM | > 100 µM (inactive) | > 100 µM (inactive) | > 100 µM (inactive) | > 100 µM (inactive) | > 100 µM (inactive) | > 100 µM (inactive) | > 100 µM (inactive) | > 100 µM (inactive) | > 100 µM (inactive)
4 | O=C1OC2C(O)C(=O)OC2C1O (stereo not given) | > 100 µM (inactive) | > 100 µM (inactive) | > 100 µM (inactive) | > 100 µM (inactive) | > 100 µM (inactive) | > 100 µM (inactive) | > 100 µM (inactive) | – | > 100 µM (inactive) | > 100 µM (inactive) | > 100 µM | > 100 µM (inactive) | > 100 µM (inactive) | > 100 µM (inactive) | > 100 µM (inactive) | > 100 µM (inactive) | > 100 µM (inactive) | > 100 µM (inactive) | > 100 µM (inactive) | > 100 µM (inactive)
5 | COc1ccc(C[C@@H]2CN(C(=O)c3ccccc3)[C@H](Cc3ccc(O)cc3)CN2C(=O)c2ccccc2)cc1Br | > 100 µM (inactive) | > 100 µM (inactive) | > 100 µM (inactive) | > 100 µM (inactive) | > 100 µM (inactive) | – | > 100 µM (inactive) | > 100 µM (inactive) | > 100 µM (inactive) | – | > 100 µM | – | > 100 µM (inactive) | > 100 µM (inactive) | > 100 µM (inactive) | > 100 µM (inactive) | > 100 µM (inactive) | > 100 µM (inactive) | > 100 µM (inactive) | –
6 | COc1ccc(C/C=C(\C)CCO)cc1 | > 100 µM (inactive) | – | > 100 µM (inactive) | > 100 µM (inactive) | > 100 µM (inactive) | > 100 µM (inactive) | – | > 100 µM (inactive) | > 100 µM (inactive) | > 100 µM (inactive) | > 100 µM | > 100 µM (inactive) | > 100 µM (inactive) | > 100 µM (inactive) | > 100 µM (inactive) | > 100 µM (inactive) | > 100 µM (inactive) | – | > 100 µM (inactive) | > 100 µM (inactive)
7 | CC1=CC(c2ccccc2)OP1(=O)c1ccccc1 (stereo not given) | > 100 µM (inactive) | > 100 µM (inactive) | > 100 µM (inactive) | > 100 µM (inactive) | > 100 µM (inactive) | – | > 100 µM (inactive) | > 100 µM (inactive) | > 100 µM (inactive) | > 100 µM (inactive) | > 100 µM | – | > 100 µM (inactive) | > 100 µM (inactive) | > 100 µM (inactive) | > 100 µM (inactive) | > 100 µM (inactive) | > 100 µM (inactive) | > 100 µM (inactive) | > 100 µM (inactive)
8 | Cc1cc2c3c([nH]c2c2ccnc(C)c12)CCCC3 | 1.62 µM (inactive) | – | 1.88 µM (inactive) | 1.96 µM (inactive) | 1.69 µM (inactive) | 1.69 µM (inactive) | 12.1 µM (inactive) | 1.92 µM (inactive) | 2.46 µM (inactive) | 1.55 µM (inactive) | 1.86 µM | – | 2.18 µM (inactive) | 3.65 µM (inactive) | 1.68 µM (inactive) | 5.13 µM (inactive) | 2.23 µM (inactive) | 2.15 µM (inactive) | 1.77 µM (inactive) | –
9 | CC1OC2OC3C(OCC(O)C3O)OC(=O)[C@]34CCC(C)(C)CC3C3=CCC5[C@@]6(C)C[C@H](O)[C@H](OC7OC(CO)C(O)C(O)C7OC7OC(COC(=O)CC(C)(O)CC(=O)OC1C(O)C2O)C(O)C(O)C7O)[C@@](C)(CO)C6CC[C@@]5(C)[C@]3(C)CC4 (stereo not given in full) | 1.59 µM (inactive) | – | 1.57 µM (inactive) | 1.61 µM (inactive) | 1.52 µM (inactive) | 1.56 µM (inactive) | 2.48 µM (inactive) | 1.79 µM (inactive) | 1.69 µM (inactive) | 1.21 µM (inactive) | 1.53 µM | – | 1.65 µM (inactive) | 1.61 µM (inactive) | 1.21 µM (inactive) | 3.01 µM (inactive) | 1.24 µM (inactive) | 2.39 µM (inactive) | 1.96 µM (inactive) | 1.64 µM (inactive)
10 | C=C(CO)[C@H]1Oc2ccc(C(C)=O)cc2[C@@H]1O | > 100 µM (inactive) | > 100 µM (inactive) | 36.8 µM (inactive) | > 100 µM (inactive) | > 100 µM (inactive) | > 100 µM (inactive) | > 100 µM (inactive) | 77.8 µM (inactive) | > 100 µM (inactive) | > 100 µM (inactive) | 80.9 µM | > 100 µM (inactive) | > 100 µM (inactive) | > 100 µM (inactive) | > 100 µM (inactive) | – | > 100 µM (inactive) | > 100 µM (inactive) | > 100 µM (inactive) | 88.7 µM (inactive)
11 | C=C1C(=O)O[C@H]2C1C[C@@H](OC(C)=O)/C(C)=C/CC[C@@]1(C)O[C@H]21 (stereo not given in full) | 21.8 µM (inactive) | – | 22.4 µM (inactive) | 0.817 µM (active) | 3.7 µM (inactive) | – | – | 26.1 µM (inactive) | 20.1 µM (inactive) | 5.53 µM (inactive) | 6.53 µM | 6.53 µM (inactive) | 16.1 µM (inactive) | 17.6 µM (inactive) | 11.5 µM (inactive) | 11 µM (inactive) | 7.67 µM (inactive) | 7.1 µM (inactive) | 14.3 µM (inactive) | 2.26 µM (inactive)
12 | CC1=CC(=O)/C(=C/NC(N)=S)C(=O)O1 | 50.2 µM (inactive) | – | > 100 µM (inactive) | – | > 100 µM (inactive) | > 100 µM (inactive) | > 100 µM (inactive) | > 100 µM (inactive) | – | 92 µM (inactive) | 98.4 µM | 1.05 µM (active) | > 100 µM (inactive) | > 100 µM (inactive) | > 100 µM (inactive) | > 100 µM (inactive) | > 100 µM (inactive) | – | > 100 µM (inactive) | > 100 µM (inactive)
13 | O=C(O)Cc1ccc(Nc2nc3cc(C(F)(F)F)ccc3nc2C(=O)O)cc1 | > 100 µM (inactive) | > 100 µM (inactive) | > 100 µM (inactive) | > 100 µM (inactive) | > 100 µM (inactive) | – | > 100 µM (inactive) | > 100 µM (inactive) | > 100 µM (inactive) | > 100 µM (inactive) | > 100 µM | > 100 µM (inactive) | > 100 µM (inactive) | > 100 µM (inactive) | > 100 µM (inactive) | > 100 µM (inactive) | > 100 µM (inactive) | > 100 µM (inactive) | > 100 µM (inactive) | > 100 µM (inactive)
14 | C[C@@H]1CC[C@]2(C)C3(C)CC[C@]2(OC3=O)[C@@]12CC(c1ccoc1)OC2=O (stereo not given in full) | 58.6 µM (inactive) | > 100 µM (inactive) | 25.3 µM (inactive) | 20.3 µM (inactive) | 19.3 µM (inactive) | – | > 100 µM (inactive) | 54.2 µM (inactive) | 54.7 µM (inactive) | 62.5 µM (inactive) | 31.4 µM | 24.8 µM (inactive) | – | 30.8 µM (inactive) | 20.5 µM (inactive) | 49.3 µM (inactive) | 26.9 µM (inactive) | > 100 µM (inactive) | 33.8 µM (inactive) | 2.15 µM (inactive)
15 | CCOc1ccc(NCc2cc(OC)c(OC)c(OC)c2)cc1 | – | – | – | 0.918 µM (active) | 0.495 µM (active) | 1.57 µM (inactive) | 11.3 µM (inactive) | 1.11 µM (active) | 0.407 µM (active) | 0.578 µM (active) | 0.303 µM | – | – | – | 1.32 µM (inactive) | 0.359 µM (active) | 2.4 µM (inactive) | – | – | 0.452 µM (active)
16 | CC(=O)OC1CC[C@@]2(C)C(C1)CC(OC(C)=O)[C@@H]1C2CC(OC(C)=O)[C@]2(C)C(C(C)CC=C(c3ccc(Cl)cc3)c3ccc(Cl)cc3)CCC12 (stereo not given in full) | – | – | > 100 µM (inactive) | – | > 100 µM (inactive) | 48 µM (inactive) | – | 25.9 µM (inactive) | 39 µM (inactive) | 55.1 µM (inactive) | 38.1 µM | – | 80.4 µM (inactive) | 36.8 µM (inactive) | > 100 µM (inactive) | > 100 µM (inactive) | > 100 µM (inactive) | 32.1 µM (inactive) | > 100 µM (inactive) | 21.8 µM (inactive)
